Laboratory results: patent EP4817611A1, “PHARMACEUTICAL COMPOSITION” (EA Pharma Co., Ltd., priority 2023, dated 2025)

How the values were obtained:
[1] = recorded in the Chemical Book; cited from earlier work
[2] = One-month stability test in sealed glass vial under three storage conditions; decomposition product 1 by HPLC; type: physicochemical; conditions: Compound (2) HCl 62.5 mg + acidic substance 62.5 mg
Protocol: When the hydrochloride of the compound represented by the formula (2) (hereinafter referred to as "Compound (2) HCl") is decomposed, the following decomposition products 1 and 2 are produced. [drawing 9]
The amount of the decomposition product 1 produced was measured over time by HPLC to evaluate the stability of the pharmaceutical composition. The HPLC analysis conditions are as follows. When airtight conditions were employed in the stability test, aluminum packaging was used.
• Detector: UV absorption photometer (measurement wavelength: 256 nm) • Column: InertSustain AQ-C18 HP 3 µm, 3.0 × 150 mm (reverse-phase C18 column) • Column temperature: a constant temperature around 25°C • Mobile phase A: 50 mmol/L ammonium formate buffer solution (pH: 4) • Mobile phase B: 50 mmol/L ammonium formate buffer solution (pH: 4) : acetonitrile = 1:4 • Flow rate: 1.0 ml/min
• Time: 0 → 20 • Mobile phase A (%): 95 → 0 • Mobile phase B (%): 5 → 100
The formulation in Table 5-1 (the types of acidic substances are listed in Table 5-2) was mixed in a mortar to prepare a pharmaceutical composition, which was then sealed in a glass vial, and a one-month stability test was performed under three storage conditions (airtight conditions at 4°C, airtight conditions at 60°C, and open conditions at 60°C). As a reference example, a stability test was also performed on the active ingredient alone (without an acidic substance).

Content of decomposition product 1 (%) (4°C, airtight) ([2]; 4°C, airtight, glass vial) | Content of decomposition product 1 (%) (60°C, airtight) ([2]; 60°C, airtight, glass vial) | Content of decomposition product 1 (%) (60°C, open, 75% RH) ([2]; 60°C, open, 75% RH) | Compound | pKa [1]
– | – | – | N[C@@H](CC(=O)O)C(=O)O [aspartic acid] | 1.99
0.03% | 0.05% | 0.10% | CC(C)(Cc1ccc(C(=O)Oc2ccc(C(=N)N)cc2F)s1)C(=O)O [Reference example] | –
